Reference: BindingDB's records for doi:10.1021/jm00090a003 (Universit&#233, 1992)
Several values for one entry are separate records, joined by “and”; a condition that tells them apart may be missing. Identical values can stand only once.

Assays:
[1] = molecular target: Calcitonin gene-related peptide type 1 receptor (Cavia porcellus); assay: Binding affinity against [125I]-hCalcitonin gene-related peptide type receptor binding sites in guinea pig atrium membrane
[2] = molecular target: Calcitonin gene-related peptide (CGRP) receptor binding sites; assay: ChEBML_42602

| IC50 [1] | IC50 [2] | Molecule |
| --- | --- | --- |
| 22 nM and 25 nM |  | H-VTHALAGLLSRSGGVVKNNFVPTNVGSKAF-NH2 |
| 11 nM | 14.5 nM | H-VTHRAAGLLSRSGGVVKNNFVPTNVGSKAF-NH2 |
|  | 9 nM | CC(C)C[C@H](NC(=O)CNC(=O)[C@H](C)NC(=O)[C@H](CC(C)C)NC(=O)[C@H](CCCN=C(N)N)NC(=O)[C@@H](N)Cc1c[nH]cn1)C(=O)N[C@@H](CC(C)C)C(=O)N[C@@H](CO)C(=O)N[C@@H](CCCN=C(N)N)C(=O)N[C@@H](CO)C(=O)NCC(=O)NCC(=O)N[C@H](C(=O)N[C@H](C(=O)N[C@@H](CCCCN)C(=O)N[C@@H](CC(N)=O)C(=O)N[C@@H](CC(N)=O)C(=O)N[C@@H](Cc1ccccc1)C(=O)N[C@H](C(=O)N1CCC[C@H]1C(=O)N[C@H](C(=O)N[C@@H](CC(N)=O)C(=O)N[C@H](C(=O)NCC(=O)N[C@@H](CO)C(=O)N[C@@H](CCCCN)C(=O)N[C@@H](C)C(=O)N[C@@H](Cc1ccccc1)C(N)=O)C(C)C)[C@@H](C)O)C(C)C)C(C)C)C(C)C |
